# Values quoted from earlier work in patent US11648202B2, “Hydroxychloroquine sulfate formulations and methods for preparation and use thereof” (Research Triangle Institute, priority 2017, dated 2023).
# Structures can show the parent of a compound that is named as a salt.
compound,measurement,value
"CCN(CCO)CCCC(C)Nc1ccnc2cc(Cl)ccc12 (stereo not shown) [HCQS, hydroxychloroquine sulfate]",pKa of the amine,about 9.4
